Reference: patent US20260297164A1, “ANTI-FIBROTIC PEPTIDES AND USES THEREOF” (Deackt, Inc., priority 2021, published 2026)

Tested on: TGF-β1-induced PI3K/Akt/mTOR, p62, IKK signaling in mouse lung fibroblasts
Test: Western immunoblot of signaling proteins in TGF-β1-stimulated mouse lung fibroblasts (SDC2-pep)
Type: cell-based
Conditions: wild type fibroblasts, TGF-β1 10 ng/ml, 24 h
Procedure: FIG. 5. […] (A-C) Ptprj^fl/fl Col1a2^Cre-ER(T)+/0 mice (fibroblast-specific CD148 deficient) and Col1a2^Cre-ER(T)+/0 (WT) mice were exposed to BLM. SDC2 18-aa peptide (SDC2-pep, 0.5 mg/kg) was intranasally delivered into WT and Ptprj^fl/fl Col1a2^Cre-ER(T)+/0 mice 10 days after BLM injury. Treatments were repeated at day 12, 14, 16 and 18. (A) At 24 days after BLM exposure lungs were harvested and stained with Masson's trichrome (n=3 for saline and n=5 for BLM groups). (B) Hydroxyproline content was measured in the left lung of mice exposed to BLM (n=11) or saline (n=5). Gene expression of (C) Fn and Col1a1; and (D) connective tissue growth factor (Ctgf) in harvested lungs were measured using qPCR (n=5 for each condition). […] (E) Expression of p-AKT/Akt, p-mTOR/mTOR, p62/GAPDH p-IKKα/β/IKKα, α-SMA/GAPDH, and CD148/GAPDH was determined by Western immunoblotting (n=4), and corresponding densitometry (ImageJ software). […] (F) mRNA levels of Col1a1 and Fn were measured by qPCR (n=5 for each condition). […] Gel contractility was measured at 0, 12, and 24 h after TGF-β1 stimulation (n=6 for each condition). […] Total cell concentrations were measured in BAL fluid from Ptprj^fl/fl Col1a2^Cre-ER(T)+/0 mice and Col1a2-Cre (control) mice 21 days after BLM injury (n=5/group). […]

TGF-β1
expression of p-Akt, p-mTOR, p62, p-IKKα/β, and α-SMA: increased
